Data taken from PubChem BioAssay AID1963970 (Molecular Pharmacology Branch, DTP, NCI, 2024).

Tested on: 931267-113-T-J1-PDC multicell spheroid viability
Experiment: Anticancer human tumor 931267-113-T-J1-PDC patient-derived colon adenocarcinoma cell line growth inhibition [PI3K]
Details: for IC50: curve of first compound; for viability, T/C: stronger effect = lower value
In short: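 Combination activity was assessed by viability in multicellular tumor spheroids carrying HUVEC and MSC components. Agents were tested with PI3K inhibitors from a Cmax-based top dose (or 10 microM) downward in half-log increments.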

[1] = second compound 0.0316 µM, first compound 0.0316 µM
[2] = second compound 0.0316 µM, first compound 0.1 µM
[3] = second compound 0.0316 µM, first compound 0.316 µM
[4] = second compound 0.0316 µM, first compound 1 µM
[5] = second compound 0.0316 µM, first compound 3.16 µM
[6] = second compound 0.0316 µM, first compound 10 µM
[7] = second compound 0.1 µM, first compound 0.0316 µM
[8] = second compound 0.1 µM, first compound 0.1 µM
[9] = second compound 0.1 µM, first compound 0.316 µM
[10] = second compound 0.1 µM, first compound 1 µM
[11] = second compound 0.1 µM, first compound 3.16 µM
[12] = second compound 0.1 µM, first compound 10 µM
[13] = second compound 0.316 µM, first compound 0.0316 µM
[14] = second compound 0.316 µM, first compound 0.1 µM
[15] = second compound 0.316 µM, first compound 0.316 µM
[16] = second compound 0.316 µM, first compound 1 µM
[17] = second compound 0.316 µM, first compound 3.16 µM
[18] = second compound 0.316 µM, first compound 10 µM
[19] = second compound 1 µM, first compound 0.0316 µM
[20] = second compound 1 µM, first compound 0.1 µM
[21] = second compound 1 µM, first compound 0.316 µM
[22] = second compound 1 µM, first compound 1 µM
[23] = second compound 1 µM, first compound 3.16 µM
[24] = second compound 1 µM, first compound 10 µM
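Further: viability read 7 days after compound addition.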

Structure (SMILES): C[C@@H](NC(=O)c1ncnc(N)c1Cl)c1ncc(C(=O)Nc2cc(C(F)(F)F)c(Cl)cn2)s1 + CC(Nc1ccc2c(c1)OCCn1cc(N3C(=O)OCC3C(F)F)nc1-2)C(N)=O
- IC50 (second compound 0.00316 µM): > 10 µM
- IC50 (second compound 0.01 µM): > 10 µM
- IC50 (second compound 0.0316 µM): > 10 µM
- IC50 (second compound 0.1 µM): 8.97 µM
- IC50 (second compound 0.316 µM): 7.88 µM
- IC50 (second compound 1 µM): 4.87 µM
- viability, T/C (second compound 0.00316 µM, first compound 0.0316 µM): 114%
- viability, T/C (second compound 0.00316 µM, first compound 0.1 µM): 129%
- viability, T/C (second compound 0.00316 µM, first compound 0.316 µM): 110%
- viability, T/C (second compound 0.00316 µM, first compound 1 µM): 121%
- viability, T/C (second compound 0.00316 µM, first compound 3.16 µM): 90.8%
- viability, T/C (second compound 0.00316 µM, first compound 10 µM): 75.3%
- viability, T/C (second compound 0.01 µM, first compound 0.0316 µM): 116%
- viability, T/C (second compound 0.01 µM, first compound 0.1 µM): 108%
- viability, T/C (second compound 0.01 µM, first compound 0.316 µM): 111%
- viability, T/C (second compound 0.01 µM, first compound 1 µM): 118%
- viability, T/C (second compound 0.01 µM, first compound 3.16 µM): 101%
- viability, T/C (second compound 0.01 µM, first compound 10 µM): 66.7%
- viability, T/C [1]: 99.7%
- viability, T/C [2]: 124%
- viability, T/C [3]: 119%
- viability, T/C [4]: 110%
- viability, T/C [5]: 97.9%
- viability, T/C [6]: 63.6%
- viability, T/C [7]: 116%
- viability, T/C [8]: 93.3%
- viability, T/C [9]: 101%
- viability, T/C [10]: 95.9%
- viability, T/C [11]: 78%
- viability, T/C [12]: 46.4%
- viability, T/C [13]: 94%
- viability, T/C [14]: 97.5%
- viability, T/C [15]: 96.4%
- viability, T/C [16]: 87%
- viability, T/C [17]: 75.2%
- viability, T/C [18]: 43.5%
- viability, T/C [19]: 83%
- viability, T/C [20]: 88.8%
- viability, T/C [21]: 80.7%
- viability, T/C [22]: 77.2%
- viability, T/C [23]: 62.3%
- viability, T/C [24]: 29.7%

Structure (SMILES): CCCS(=O)(=O)Nc1ccc(F)c(C(=O)c2c[nH]c3ncc(-c4ccc(Cl)cc4)cc23)c1F + CC(Nc1ncnc2nc[nH]c12)c1cc2cccc(Cl)c2c(=O)n1-c1ccccc1
- IC50 (second compound 0.0316 µM): 6.07 µM
- IC50 (second compound 0.1 µM): 6.04 µM
- IC50 (second compound 0.316 µM): 6.07 µM
- IC50 (second compound 1 µM): 5.96 µM
- IC50 (second compound 3.16 µM): 5.92 µM
- IC50 (second compound 10 µM): 5.69 µM
- viability, T/C [1]: 102%
- viability, T/C [2]: 101%
- viability, T/C [3]: 104%
- viability, T/C [4]: 125%
- viability, T/C [5]: 112%
- viability, T/C [6]: 4.93%
- viability, T/C [7]: 101%
- viability, T/C [8]: 111%
- viability, T/C [9]: 103%
- viability, T/C [10]: 107%
- viability, T/C [11]: 119%
- viability, T/C [12]: 4.62%
- viability, T/C [13]: 107%
- viability, T/C [14]: 103%
- viability, T/C [15]: 109%
- viability, T/C [16]: 122%
- viability, T/C [17]: 110%
- viability, T/C [18]: 3.9%
- viability, T/C [19]: 102%
- viability, T/C [20]: 93.9%
- viability, T/C [21]: 113%
- viability, T/C [22]: 110%
- viability, T/C [23]: 109%
- viability, T/C [24]: 4.52%
- viability, T/C (second compound 3.16 µM, first compound 0.0316 µM): 99.2%
- viability, T/C (second compound 3.16 µM, first compound 0.1 µM): 99.9%
- viability, T/C (second compound 3.16 µM, first compound 0.316 µM): 102%
- viability, T/C (second compound 3.16 µM, first compound 1 µM): 116%
- viability, T/C (second compound 3.16 µM, first compound 3.16 µM): 104%
- viability, T/C (second compound 3.16 µM, first compound 10 µM): 5.3%
- viability, T/C (second compound 10 µM, first compound 0.0316 µM): 92.3%
- viability, T/C (second compound 10 µM, first compound 0.1 µM): 95.2%
- viability, T/C (second compound 10 µM, first compound 0.316 µM): 99.6%
- viability, T/C (second compound 10 µM, first compound 1 µM): 108%
- viability, T/C (second compound 10 µM, first compound 3.16 µM): 97.7%
- viability, T/C (second compound 10 µM, first compound 10 µM): 4.17%
